Laboratory results published in patent publication US10473647B1, “Peptides for use in treatment and diagnosis of type 1 diabetes” (ImmusanT, Inc., priority 2014, dated 2019).
No end group written: not given here.

Key:
Assay type in all cases: cell-based, human
[1] = system: whole blood from subjects with Type 1 Diabetes; experiment: Whole blood IP-10 release assay, fine mapping of preproinsulin epitope (Example 3); conditions: peptide 10 μM; average of 4 subjects with T1D; FIG. 1A-1C
Excerpt: The leader sequence of the preproinsulin epitope was fine mapped with lys-substituted peptides and C- and N-terminal truncations. […] Without wishing to be bound by any theory, a therapeutic and/or diagnostic peptide in accordance with the present disclosure may be selected to avoid CD8 activity but ensure that CD4 T cells were targeted. The data are the averages of 4 subjects whole blood IP-10 release measured as fold change over medium alone without peptide.
Whole blood was collected from 4 subjects with Type 1 Diabetes aged between 29 and 45-years old. […] In whole blood assays using fresh heparinized blood incubated with peptide (final concentration 10 μM) in phosphate buffered saline (PBS) and DMSO in 96-well round-bottom plates. Peptides (purity by LC-MS >80%) were truncations or lysine-substituted variants of a sequence in preproinsulin shown to be immunogenic in previous studies comparing peptides spanning this polypeptide. […] Assay plates were run on the Luminex MAGPIX magnetic plate reader. The upper limit of quantitation is 10,000 pg/mL and the lower limit of detection is 3.2 pg/mL. The Fold Change of cytokine concentrations from incubations with individual peptides was calculated by dividing the cytokine concentration from the individual peptide incubations by the cytokine concentration of incubations with PBS and DMSO (NIL) on the same assay plates. […]

[2] = system: undepleted whole blood; experiment: Whole blood cytokine assay, IL-2, undepleted blood, number of subjects with >=1.25 fold over medium (Example 2); conditions: 24 h, peptides 20 ug/mL, pools 4 ug/mL, NEX-01/Nexgen POOL 25 uM, CEFT 1 ug/mL
Description: (§1) The depleted blood as well as the remaining undepleted whole blood was then utilized in whole blood cytokine release assays. T-cell cytokine responses were assessed for reactivity to pools of 17mer peptides encompassing all unique 12mer amino-acid sequences derived from pancreatic islet antigens commonly recognized by autoantibodies in T1D: insulin, glutamic decarboxylase-65 (GAD65), and insulinoma-associated antigen (IA)-2 as provided in Table 13A and Table 13B.
(§2) Fresh heparinized blood was incubated with peptide. Concentrations of individual islet-autoantigen peptides were 20 μg/mL and constituent peptides in islet-autoantigen pools were 4 ug/mL. Control MHC class II peptide mix CEFT was used at 1 μg/mL. Gliadin peptide pools were added to whole blood assays at 25 μM. Whole blood assays were incubated for 24 h at 37° C. in 5% CO2. Plasma was separated from blood after centrifugation at 500×g for 10 minutes at room temperature and then transferred to a corresponding well in a “mirror image” sterile 96-well plate. and frozen at −80° C. until use. Multiplex bead-based cytokine assays (MAGPix) were performed according to manufacturer's instructions on thawed plasma. Concentrations of interferon (IFN)-γ-induced protein-10 (IP-10), interleukin (IL)-2 and IFN-γ. Table 14 is a summary of the results for the whole blood cytokine assays which expresses the data in the number of subjects that are positive for ≥1.25 fold production of cytokine over cells incubated with medium only (background).

[3] = system: undepleted whole blood; experiment: Whole blood cytokine assay, IP-10, undepleted blood, number of subjects with >=1.25 fold over medium (Example 2); conditions: 24 h, peptides 20 ug/mL, pools 4 ug/mL, NEX-01/Nexgen POOL 25 uM, CEFT 1 ug/mL
Description: as §1, §2

[4] = system: CD4+ T cell depleted blood; experiment: Whole blood cytokine assay, IFNg, CD4+ T cell depleted blood (Example 2); conditions: T1D Subjects (n of 6), 24 h, peptides 20 ug/mL, pools 4 ug/mL, NEX-01/Nexgen POOL 25 uM, CEFT 1 ug/mL
Description: (§3) Depletion of human CD4+ and CD8+ T cells directly from whole blood, using CD4 and CD8 Dynabeads respectively (Dynabeads Human CD4, Life Technologies, #11145D; Dynabeads Human CD8, Life Technologies, #11145D), was done according to the manufacturer's protocol. Briefly, the Dynabeads were resuspended and the desired volume was transferred to a 15 Ml tube. The calculation of the volume of beads added to whole blood was 2×10^6 CD4 beads (25 μL) and 4×10^6 CD8 beads (50 μL) per Ml of whole blood. The beads were first washed with 3 Ml PBS, vortexed and placed on the magnet for 1 minute. Supernatant was discarded and beads were removed from the magnet. Whole blood was then added to the beads at the volume calculated for the concentration of beads in the tubes. The tubes containing whole blood and Dynabeads were then incubated 45 minutes at 4° C. on a continuous rocker.
(§4) Tubes were then placed into the magnet for 2 minutes. The whole blood supernatant was then transferred to a new tube for use in 24-hour Whole Blood Assay or for Flow Cytometric Analysis. Magnetic beads were discarded.
as §1, §2

[5] = system: CD4+ T cell depleted blood; experiment: Whole blood cytokine assay, IP-10, CD4+ T cell depleted blood (Example 2); conditions: T1D Subjects (n of 6), 24 h, peptides 20 ug/mL, pools 4 ug/mL, NEX-01/Nexgen POOL 25 uM, CEFT 1 ug/mL
Description: as §3, §4, §1, §2

[6] = system: CD8+ T cell depleted blood; experiment: Whole blood cytokine assay, IFNg, CD8+ T cell depleted blood (Example 2); conditions: T1D Subjects (n of 6), 24 h, peptides 20 ug/mL, pools 4 ug/mL, NEX-01/Nexgen POOL 25 uM, CEFT 1 ug/mL
Description: as §3, §4, §1, §2

[7] = system: CD8+ T cell depleted blood; experiment: Whole blood cytokine assay, IL-2, CD8+ T cell depleted blood (Example 2); conditions: T1D Subjects (n of 6), 24 h, peptides 20 ug/mL, pools 4 ug/mL, NEX-01/Nexgen POOL 25 uM, CEFT 1 ug/mL
Description: as §3, §4, §1, §2

[8] = system: CD8+ T cell depleted blood; experiment: Whole blood cytokine assay, IP-10, CD8+ T cell depleted blood (Example 2); conditions: T1D Subjects (n of 6), 24 h, peptides 20 ug/mL, pools 4 ug/mL, NEX-01/Nexgen POOL 25 uM, CEFT 1 ug/mL
Description: as §3, §4, §1, §2

[9] = system: undepleted whole blood; experiment: Whole blood cytokine assay, IFNg, undepleted blood, number of subjects with >=1.25 fold over medium (Example 2); conditions: 24 h, peptides 20 ug/mL, pools 4 ug/mL, NEX-01/Nexgen POOL 25 uM, CEFT 1 ug/mL
Description: as §1, §2

[10] = T1D Subjects (n of 6), Undepleted WB
[11] = Healthy Subjects (n of 4), whole blood

Row | Substance | bioactivity in whole blood IP-10 release assay (fold change over medium alone), in words [1] | Fold Change IL-2, number of subjects positive for ≥1.25 fold production of cytokine over medium only [2, 10] | Fold Change IP-10, number of subjects positive for ≥1.25 fold production of cytokine over medium only [3, 11] | Fold Change IP-10, number of subjects positive for ≥1.25 fold production of cytokine over medium only [3, 10] | Fold Change IFNg, number of subjects positive for ≥1.25 fold production of cytokine over medium only [4] | Fold Change IP-10, number of subjects positive for ≥1.25 fold production of cytokine over medium only [5] | Fold Change IFNg, number of subjects positive for ≥1.25 fold production of cytokine over medium only [6] | Fold Change IL-2, number of subjects positive for ≥1.25 fold production of cytokine over medium only [7] | Fold Change IP-10, number of subjects positive for ≥1.25 fold production of cytokine over medium only [8] | Fold Change IFNg, number of subjects positive for ≥1.25 fold production of cytokine over medium only [9, 11] | Fold Change IFNg, number of subjects positive for ≥1.25 fold production of cytokine over medium only [9, 10] | Fold Change IL-2, number of subjects positive for ≥1.25 fold production of cytokine over medium only [2, 11]
1 | LPLLALLAL [SEQ ID NO: 76] | suggests this is an epitope for CD8 T cells |  |  |  |  |  |  |  |  |  |  | 
2 | L2P1, 051 (NMFTYEIAPVFVLLEYV) |  | 1/6 | 3/4 | 4/6 | 1/6 | 3/6 | 2/6 | 2/6 | 5/6 |  |  | 
3 | LLALLALWGPD [SEQ ID NO: 14] | compatible with an epitope for CD4 T cells |  |  |  |  |  |  |  |  |  |  | 
4 | 20150-05-W1: peptide tested in Example 2 whole blood cytokine assays (Tables 13A/13B, 14) (REAEDLQVGQVELGGGP) |  |  | 3/4 | 4/6 | 1/6 | 3/6 | 1/6 | 1/6 | 5/6 |  |  | 
5 | L2P1, 049 (FNQLSTGLDMVGLAADW) |  |  |  |  | 1/6 | 2/6 |  |  | 2/6 |  |  | 
6 | 20150-24: peptide tested in Example 2 whole blood cytokine assays (Tables 13A/13B, 14) (PLLALLALWGPDPAAAF) |  | 4/6 | 4/4 | 6/6 | 1/6 | 3/6 | 5/6 | 6/6 | 5/6 | 1/4 | 4/6 | 1/4
7 | L3P2, 076 (GRTGTYILIDMVLNRMA) |  | 5/6 | 3/4 | 6/6 |  | 3/6 | 5/6 | 6/6 | 5/6 | 1/4 | 4/6 | 1/4
8 | 20150-19 (EDLQVGQVELGGGPGAG-NH2) [Peptide 20150-19] |  |  | 1/4 |  | 2/6 |  | 3/6 | 1/6 |  | 1/4 |  | 
